Experimental data taken from US11458200B2, “Constructs, agents, and methods for facilitated ablation of cardiac tissue” (priority 2016, dated 2022).
“Also recorded” adds a separate entry of the source.

Legend:
epicardium = assay: Open-chest rodent survival model of epicardial RF ablation after IV quercetin; format: in vivo; details: for Lesion Depth: 10 mg/kg
Method: Using an open-chest rodent survival model and a custom-made catheter, RF was applied to the epicardium at 3 W for 20 seconds after infusion of a HSP inhibitor, intravenous quercetin (n=20, 10 mg/kg), or control (n=20). Animals were sacrificed at 1 (n=10 each) and 24 hours (n=10 each) after ablation. RFA lesions were stained and analyzed under microscopy.

adenocarcinoma tumor = details: combined quercetin and RF energy; cited from earlier work
myocardium = details: porcine model; cited from earlier work
[1] = 24 hours after RFA, 3 W for 20 seconds, IV 10 mg/kg, N 10

Compound | ablation lesions analyzed at 1 hour after RFA (epicardium; 1 hour after RFA, IV 10 mg/kg) | Volume (epicardium; [1]) [µL] | Lesion Depth (epicardium; [1]) [mm] | Lesion Depth (epicardium; 24 hours after RFA, 3 W for 20 seconds, IV 10 mg/kg, N 10, listed as quercetin) [mm] | lesion volumes (epicardium; 24 hours after ablation, vs 25.7±8.6 control, p=0.01) [µL] | adverse events related to HSP inhibition (epicardium; IV 10 mg/kg) | microscopy of lesions compared to controls (epicardium; in vivo) | HSP expression (adenocarcinoma tumor) | apoptosis (adenocarcinoma tumor) | tumor destruction (adenocarcinoma tumor) | ablation lesion sizes after in vivo injection (myocardium)
O=c1c(O)c(-c2ccc(O)c(O)c2)oc2cc(O)cc(O)c12 [Quercetin, 3,3′,4′,5,7-pentahydroxyflavone] | did not acutely result in larger ablation lesions | 37.6 ± 10.5 | 1.8 ± 0.3 | 1.8±0.3 | 37.6 ± 10.5 | No adverse events | larger necrotic cores and border zones | decreased HSP expression | increased apoptosis | larger tumor destruction | 
[Gd] [gadolinium] |  |  |  |  |  |  |  |  |  |  | increased lesion sizes; also recorded: larger lesions
